{"source": "patent US20180311247A1", "about": "“COMBINATION THERAPIES FOR TREATING CANCERS” (GILEAD SCIENCES, INC., priority 2015, published 2018)", "key": {"[1]": {"tested_on": "type II collagen arthritis in female Lewis rats", "assay": "rat collagen-induced arthritis model (established type II collagen arthritis)", "type": "in vivo", "settings": "for summed ankle histopathology (mean ± standard error), maximum value of 25: day 34", "experimental": "This study evaluated the potential effects of BTK inhibitor in combination with JAK inhibitor in treating arthritis. Lewis rats were injected intradermally/subcutaneously (ID/SC) with porcine type II collagen to induce arthritis. Arthritic rats were treated with vehicle (20% Cremophor EL/10% EtOH/70% saline), Compound A1 (a BTK inhibitor), Compound B4 (a JAK inhibitor), Compound A1 and Compound B4, or Dex (dexamethasone). Compound A1 was administered orally either twice daily at 3, 10, or 20 mg/kg or once daily at 20 mg/kg; Compound B4 was administered orally daily at 2.5 mg/kg; dex was administered daily at 0.075 mg/kg, initiated on day 17. The study was terminated at day 34. Efficacy evaluation was based on body weights, daily ankle caliper measurements, ankle diameter expressed as area under the curve (AUC), terminal hind paw weights, and histopathologic evaluation of right ankles.\nThis model may reflect certain clinical and histopathologic parameters, such as inflammation, cartilage destruction, and bone resorption that occur in established type II collagen arthritis in female Lewis rats.\nAnkle diameters were measured and compared for potential treatment effects. FIG. 1 depicts the measurements taken on Day 9, 13-34 for ankle diameter (in.) (mean±standard error) for the following groups: control (normal and disease), Compound A1 (20 mg/kg, daily), Compound A1 (3 mg/kg, twice daily), Compound B4 (2.5 mg/kg, twice daily), Compound A1 (20 mg/kg, daily) with Compound B4 (2.5 mg/kg, twice daily), Compound A1 (3 mg/kg, twice daily) with Compound B4 (2.5 mg/kg, twice daily) and Dex (0.075 mg/kg daily). In addition, the AUC total sum (day 17-34) (mean f standard error) was measured.\nThe following score systems were used to evaluate ankle inflammation, ankle pannus, ankle cartilage damage, ankle bone resorption, and periosteal new bone formation, which may represent treatment effects to ankle histology. The sum of the summed ankle histology scores for day 34, are provided herein.\nAnkle inflammation scores as used herein have the following meaning: 0=normal; 0.5=minimal focus inflammation; 1=minimal infiltration of inflammatory cells in synovium/periarticular tissue; 2=mild infiltration; 3-moderate infiltration with moderate edema; 4=marked infiltration with marked edema; 5=severe infiltration with severe edema. Ankle pannus scores as used herein have the following meaning: 0=normal; 0.5=minimal infiltration of pannus in cartilage and subchondral bone, affects only marginal zones and affects only a few joints; 1=minimal infiltration of pannus in cartilage and subchondral bone, primarily affects marginal zones; 2=mild infiltration (<25% of tibia or tarsals at marginal zones); 3=moderate infiltration (26%-50% of tibia or small tarsals affected at marginal zones); 4=marked infiltration (51%-75% of tibia or tarsals affected at marginal zones); 5=severe infiltration (>75% of tibia or tarsals affected at marginal zones, severe distortion of overall architecture)."}, "[2]": {"tested_on": "human activated B cell (ABC) subtype DLBCL cell line, TMD8", "assay": "TMD8 cell viability (CellTiter Glo) growth inhibition assay", "type": "cell-based", "settings": "TMD8 cells; for cell growth inhibition over the dose range: four days, Compound D 0-90 nM, Compound A1 0-22 nM; for pIC50: Homo sapiens, TMD8, 96 h, 96 hours, read-out: average IC50 (concentration that causes half maximal inhibition of cell growth)", "experimental": "Material and Methods: The effect of the combination of a BET inhibitor, (2-cyclopropyl-6-(3,5-dimethylisoxazol-4-yl)-1H-benzo[d]imidazol-4-yl)di(pyridin-2-yl)methanol (Compound D), and BTK inhibitor (Compound A1) on growth inhibition of the human activated B cell (ABC) subtype DLBCL cell line, TMD8, was evaluated in vitro. TMD8 cells were dosed with a matrix of Compound D (0-90 nM) and compound A1 (0-22 nM) and treated for four days, after which cell viability was measured by a CellTiter Glo assay. A representative heatmap of this dose matrix for cell growth inhibition is shown in FIG. 2 (0% to 100% growth inhibition). […] Synergy was defined as the excess over the predicted additive interaction between the compounds using Bliss analysis.\nCells were plated at a density of 4,000 cells per well in 384-well (Grenier 781086) tissue culture black well plates already spotted with compounds by a Labcyte Echo liquid handler. […] The predicted response under Bliss additivity for any combination of drugs at a given concentration pair was determined by Ra+Rb−Ra*Rb, where Ra and Rb are the responses of Compounds D and A1 (i.e., cell growth inhibition). The total Bliss score was determined by summing the differences between the observed values and the predicted additive value at each pair of concentrations assayed. Only values where the difference is greater than the 95% confidence interval of the measurements are included in the sum."}, "[3]": {"settings": "Compound A1 3 mg/kg, twice daily, orally"}, "[4]": {"settings": "Compound A1 10 mg/kg, twice daily, orally"}, "[5]": {"settings": "Compound A1 20 mg/kg, daily, orally"}, "[6]": {"settings": "Compound A1 20 mg/kg, twice daily, orally"}, "[7]": {"settings": "Compound B4 2.5 mg/kg, twice daily, orally"}}, "note": "pIC50: −log10 of the molar value. Like-named read-outs stand apart in the source and are kept apart here."}
{"smiles": "CC#CC(=O)N1CC[C@@H](n2c(=O)n(-c3ccc(Oc4ccccc4)cc3)c3c(N)ncnc32)C1", "note": "[Compound A1, (R)-6-amino-9-(1-(but-2-ynoyl)pyrrolidin-3-yl)-7-(4-phenoxyphenyl)-7H-purin-8(9H)-one]", "values": [{"measurement": "ED-1 immunopositive osteoclast count (mean ± standard error)", "setting": "[1]; [3]", "value": "7±1.3"}, {"measurement": "ankle diameter AUC total sum (day 17-34) (mean ± standard error)", "setting": "[1]; [3]", "value": "5.9±0.079"}, {"measurement": "percent inhibition of the AUC total sum (day 17-34)", "setting": "[1]; [3]", "value": 13, "unit": "%"}, {"measurement": "percent inhibition of the ED-1 immunopositive osteoclast count", "setting": "[1]; [3]", "value": 65, "unit": "%"}, {"measurement": "percent inhibition of the summed ankle histopathology", "setting": "[1]; [3]", "value": 10, "unit": "%"}, {"measurement": "ED-1 immunopositive osteoclast count (mean ± standard error)", "setting": "[1]; [4]", "value": "8±1.9"}, {"measurement": "ankle diameter AUC total sum (day 17-34) (mean ± standard error)", "setting": "[1]; [4]", "value": "5.9±0.102"}, {"measurement": "percent inhibition of the AUC total sum (day 17-34)", "setting": "[1]; [4]", "value": 9, "unit": "%"}, {"measurement": "percent inhibition of the ED-1 immunopositive osteoclast count", "setting": "[1]; [4]", "value": 62, "unit": "%"}, {"measurement": "percent inhibition of the summed ankle histopathology", "setting": "[1]; [4]", "value": 16, "unit": "%"}, {"measurement": "ED-1 immunopositive osteoclast count (mean ± standard error)", "setting": "[1]; [5]", "value": "9±1.5"}, {"measurement": "ankle diameter AUC total sum (day 17-34) (mean ± standard error)", "setting": "[1]; [5]", "value": "5.9±0.096"}, {"measurement": "percent inhibition of the AUC total sum (day 17-34)", "setting": "[1]; [5]", "value": 13, "unit": "%"}, {"measurement": "percent inhibition of the ED-1 immunopositive osteoclast count", "setting": "[1]; [5]", "value": 56, "unit": "%"}, {"measurement": "percent inhibition of the summed ankle histopathology", "setting": "[1]; [5]", "value": 15, "unit": "%"}, {"measurement": "ED-1 immunopositive osteoclast count (mean ± standard error)", "setting": "[1]; [6]", "value": "4±0.7"}, {"measurement": "ankle diameter AUC total sum (day 17-34) (mean ± standard error)", "setting": "[1]; [6]", "value": "5.8±0.124"}, {"measurement": "percent inhibition of the AUC total sum (day 17-34)", "setting": "[1]; [6]", "value": 15, "unit": "%"}, {"measurement": "percent inhibition of the ED-1 immunopositive osteoclast count", "setting": "[1]; [6]", "value": 83, "unit": "%"}, {"measurement": "percent inhibition of the summed ankle histopathology", "setting": "[1]; [6]", "value": 18, "unit": "%"}, {"measurement": "summed ankle histopathology (mean ± standard error), maximum value of 25", "setting": "[1]; [3]", "value": "23±0.6"}, {"measurement": "summed ankle histopathology (mean ± standard error), maximum value of 25", "setting": "[1]; [4]", "value": "21±1.4"}, {"measurement": "summed ankle histopathology (mean ± standard error), maximum value of 25", "setting": "[1]; [5]", "value": "21±0.7"}, {"measurement": "summed ankle histopathology (mean ± standard error), maximum value of 25", "setting": "[1]; [6]", "value": "21±0.6"}, {"measurement": "cell growth inhibition over the dose range", "setting": "[2]", "value": "reduced cell growth"}]}
{"smiles": "C[C@@H]1CCN(C(=O)CC#N)C[C@@H]1N(C)c1ncnc2[nH]ccc12", "note": "[Compound B4, 3-((3R,4R)-4-methyl-3-(methyl(7H-pyrrolo[2,3-d]pyrimidin-4-yl)amino)piperidin-1-yl)-3-oxopropanenitrile, reference compound]", "values": [{"measurement": "ED-1 immunopositive osteoclast count (mean ± standard error)", "setting": "[1]; [7]", "value": "16±1.7"}, {"measurement": "ankle diameter AUC total sum (day 17-34) (mean ± standard error)", "setting": "[1]; [7]", "value": "5.6±0.083"}, {"measurement": "percent inhibition of the AUC total sum (day 17-34)", "setting": "[1]; [7]", "value": 28, "unit": "%"}, {"measurement": "percent inhibition of the ED-1 immunopositive osteoclast count", "setting": "[1]; [7]", "value": 14, "unit": "%"}, {"measurement": "percent inhibition of the summed ankle histopathology", "setting": "[1]; [7]", "value": 23, "unit": "%"}, {"measurement": "summed ankle histopathology (mean ± standard error), maximum value of 25", "setting": "[1]; [7]", "value": "19±1.4"}]}
{"smiles": "Cc1noc(C)c1-c1cc(C(O)(c2ccccn2)c2ccccn2)c2nc(C3CC3)[nH]c2c1", "note": "[Compound D, (2-cyclopropyl-6-(3,5-dimethylisoxazol-4-yl)-1H-benzo[d]imidazol-4-yl)di(pyridin-2-yl)methanol]", "values": [{"measurement": "pIC50", "setting": "[2]; Compound D alone", "value": 7.60}, {"measurement": "pIC50", "setting": "[2]; in the presence of 5.5 nM of Compound A1", "value": 7.96}, {"measurement": "pIC50", "setting": "[2]; in the presence of 11 nM of Compound A1", "value": 8.10}, {"measurement": "cell growth inhibition over the dose range", "setting": "[2]", "value": "reduced cell growth"}]}
{"smiles": "C[C@@H]1C[C@H]2[C@@H]3CCC4=CC(=O)C=C[C@]4(C)[C@@]3(F)[C@@H](O)C[C@]2(C)[C@@]1(O)C(=O)CO", "note": "[Dex, dexamethasone, reference compound]", "values": [{"measurement": "ED-1 immunopositive osteoclast count (mean ± standard error)", "setting": "[1]; Dex 0.075 mg/kg", "value": "4±1.4"}, {"measurement": "percent inhibition of the AUC total sum (day 17-34)", "setting": "[1]; Dex 0.075 mg/kg", "value": 56, "unit": "%"}, {"measurement": "percent inhibition of the ED-1 immunopositive osteoclast count", "setting": "[1]; Dex 0.075 mg/kg", "value": 85, "unit": "%"}, {"measurement": "percent inhibition of the summed ankle histopathology", "setting": "[1]; Dex 0.075 mg/kg", "value": 51, "unit": "%"}, {"measurement": "ankle diameter AUC total sum (day 17-34) (mean ± standard error)", "setting": "[1]; Dex 0.075 mg/kg daily", "value": "5.2±0.069"}, {"measurement": "summed ankle histopathology (mean ± standard error), maximum value of 25", "setting": "[1]; Dex 0.075 mg/kg daily", "value": "12±1.0"}]}
